Assay results from PubChem BioAssay AID328 (DTP/NCI, 2004).
Values joined by “and” are separate entries in the source; they are usually repeats but may differ in a detail not shown here. Identical values can stand only once. Toxic doses and inconclusive results are not listed.

Tested on: BDF1 mice, P388 leukemia ip, median survival T/C
Experiment: NCI In Vivo Anticancer Drug Screen. Data for tumor model P388 Leukemia (intraperitoneal) in B6D2F1 (BDF1) mice
Details: endpoint: median survival time, higher = longer survival
Method in brief: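 Compound-treated tumour-bearing mice were compared with vehicle-treated controls. Survival was recorded, and the value is the treated-group measurement divided by the control-group measurement (T/C).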

[1] = dose: 3.12 mg/kg/injection, schedule: Q01DX009 (ip), vehicle: water
[2] = dose: 6.25 mg/kg/injection, schedule: Q01DX009 (ip), vehicle: water
[3] = dose: 12.5 mg/kg/injection, schedule: Q01DX009 (ip), vehicle: water
[4] = dose: 100.0 mg/kg/injection, schedule: Q01DX009 (ip), vehicle: saline with Tween-80
[5] = dose: 100.0 mg/kg/injection, schedule: Q04DX003 (ip), vehicle: saline with Tween-80
[6] = dose: 200.0 mg/kg/injection, schedule: Q04DX003 (ip), vehicle: saline with Tween-80
[7] = dose: 100.0 mg/kg/injection, schedule: Q04DX003 (ip), vehicle: Klucel (hydroxypropylcellulose) (HPC)
[8] = dose: 200.0 mg/kg/injection, schedule: Q04DX003 (ip), vehicle: Klucel (hydroxypropylcellulose) (HPC)
[9] = dose: 400.0 mg/kg/injection, schedule: Q04DX003 (ip), vehicle: Klucel (hydroxypropylcellulose) (HPC)
[10] = dose: 25.0 mg/kg/injection, schedule: Q01DX009 (ip), vehicle: saline
[11] = dose: 200.0 mg/kg/injection, schedule: Q01DX009 (ip), vehicle: saline with Tween-80
[12] = dose: 400.0 mg/kg/injection, schedule: Q01DX009 (ip), vehicle: saline with Tween-80
[13] = dose: 12.5 mg/kg/injection, schedule: Q01DX009 (ip), vehicle: saline with Tween-80
[14] = dose: 50.0 mg/kg/injection, schedule: Q04DX003 (ip), vehicle: saline

SMILES: [Cl][Pt+2][Cl].[NH-]C1CCCC1.[NH-]C1CCCC1
- T/C (dose: 10.0 mg/kg/injection, schedule: Q01DX009 (ip), vehicle: Klucel (hydroxypropylcellulose) (HPC)): 96 % of control
- T/C (dose: 20.0 mg/kg/injection, schedule: Q01DX009 (ip), vehicle: Klucel (hydroxypropylcellulose) (HPC)): 107 % of control
- T/C (dose: 40.0 mg/kg/injection, schedule: Q01DX009 (ip), vehicle: Klucel (hydroxypropylcellulose) (HPC)): 112 % of control
- T/C (dose: 80.0 mg/kg/injection, schedule: Q01DX009 (ip), vehicle: Klucel (hydroxypropylcellulose) (HPC)): 117 % of control

SMILES: CC(=O)Oc1ccc2c(c1)C(=O)C(Br)C1C2CCC2(C)C(OC(C)=O)CCC12 (stereo not drawn)
- T/C (dose: 50.0 mg/kg/injection, schedule: Q01DX010 (sc), vehicle: steriod suspending solution): 95 % of control
- T/C (dose: 400.0 mg/kg/injection, schedule: Q01DX010 (sc), vehicle: steriod suspending solution): 90 % of control

SMILES: NC(=O)/C=C/c1c[nH]c2nccnc12
- T/C [1]: 113 % of control
- T/C (dose: 3.12 mg/kg/injection, schedule: Q04DX003 (ip), vehicle: water): 106 % of control
- T/C [2]: 108 % of control
- T/C (dose: 6.25 mg/kg/injection, schedule: Q04DX003 (ip), vehicle: water): 105 % of control and 112 % of control
- T/C [3]: 121 % of control
- T/C (dose: 12.5 mg/kg/injection, schedule: Q04DX003 (ip), vehicle: water): 104 % of control and 106 % of control
- T/C (dose: 25.0 mg/kg/injection, schedule: Q04DX003 (ip), vehicle: water): 114 % of control

SMILES: O=[N+]([O-])c1ccc(/C=N/c2ncc(Br)s2)o1
- T/C (dose: 25.0 mg/kg/injection, schedule: Q01DX009 (ip), vehicle: saline with Tween-80): 120 % of control
- T/C (dose: 25.0 mg/kg/injection, schedule: Q04DX003 (ip), vehicle: saline with Tween-80): 104 % of control and 118 % of control
- T/C [4]: 90 % of control
- T/C [5]: 118 % of control
- T/C [6]: 90 % of control

SMILES: BrCc1ccc(CBr)c(Br)c1
- T/C (dose: 6.0 mg/kg/injection, schedule: Q01DX009 (ip), vehicle: Klucel (hydroxypropylcellulose) (HPC)): 89 % of control
- T/C (dose: 6.25 mg/kg/injection, schedule: Q04DX003 (ip), vehicle: Klucel (hydroxypropylcellulose) (HPC)): 92 % of control
- T/C (dose: 12.0 mg/kg/injection, schedule: Q01DX009 (ip), vehicle: Klucel (hydroxypropylcellulose) (HPC)): 103 % of control
- T/C (dose: 12.5 mg/kg/injection, schedule: Q04DX003 (ip), vehicle: Klucel (hydroxypropylcellulose) (HPC)): 96 % of control
- T/C (dose: 25.0 mg/kg/injection, schedule: Q01DX009 (ip), vehicle: Klucel (hydroxypropylcellulose) (HPC)): 96 % of control
- T/C (dose: 25.0 mg/kg/injection, schedule: Q04DX003 (ip), vehicle: Klucel (hydroxypropylcellulose) (HPC)): 100 % of control

SMILES: O=C(Nc1ccccc1)Nc1ccc([N+](=O)[O-])cc1
- T/C [7]: 105 % of control
- T/C [8]: 110 % of control
- T/C [9]: 105 % of control

SMILES: O=C(OC[P+](c1ccccc1)(c1ccccc1)c1ccccc1)c1ccccc1
- T/C (dose: 3.13 mg/kg/injection, schedule: Q01DX009 (ip), vehicle: saline): 112 % of control
- T/C [10]: 122 % of control
- T/C (dose: 50.0 mg/kg/injection, schedule: Q01DX009 (ip), vehicle: saline): 91 % of control

SMILES: COC(=O)C1(C)CCCC2(C)C1CCC13OCC(CC21)C(=C(C)C)C3OC(C)=O (stereo not drawn)
- T/C [4]: 100 % of control
- T/C [11]: 100 % of control
- T/C [12]: 90 % of control

SMILES: CN=S(=O)(OCCCCOS(=O)(=NC)c1ccccc1)c1ccccc1 (stereo not drawn)
- T/C [13]: 116 % of control

SMILES: CNC(=O)OCc1c(-c2ccccc2)nc2sccn12
- T/C (dose: 12.5 mg/kg/injection, schedule: Q01DX001 (ip), vehicle: Klucel (hydroxypropylcellulose) (HPC)): 109 % of control
- T/C (dose: 25.0 mg/kg/injection, schedule: Q01DX001 (ip), vehicle: Klucel (hydroxypropylcellulose) (HPC)): 113 % of control

SMILES: CC(=O)C(C)(CCC#N)CCC#N
- T/C (dose: 50.0 mg/kg/injection, schedule: Q04DX003 (ip), vehicle: saline with Tween-80): 104 % of control
- T/C [5]: 100 % of control

SMILES: CCCn1cnc2c(=S)nc[nH]c21
- T/C [4]: 108 % of control
- T/C [5]: 109 % of control
- T/C [6]: 118 % of control
- T/C (dose: 400.0 mg/kg/injection, schedule: Q04DX003 (ip), vehicle: saline with Tween-80): 113 % of control

SMILES: CCCC[N+](CCCC)=c1cc(-c2ccc(Cl)cc2)ss1
- T/C [1]: 100 % of control and 114 % of control
- T/C [2]: 91 % of control and 120 % of control
- T/C [3]: 98 % of control and 104 % of control
- T/C (dose: 25.0 mg/kg/injection, schedule: Q01DX009 (ip), vehicle: water): 100 % of control and 106 % of control
- T/C (dose: 50.0 mg/kg/injection, schedule: Q04DX003 (ip), vehicle: water): 102 % of control
- T/C (dose: 100.0 mg/kg/injection, schedule: Q04DX003 (ip), vehicle: water): 93 % of control

SMILES: COc1ccc(/C=N/n2c(C)cc(C)c(C#N)c2=O)c(OC)c1OC
- T/C [4]: 100 % of control
- T/C [7]: 115 % of control
- T/C [11]: 86 % of control
- T/C [8]: 100 % of control
- T/C [12]: 113 % of control
- T/C [9]: 100 % of control

SMILES: O=C(NP(=O)(N1CC1)N1CC1)OCc1ccccc1
- T/C (dose: 100.0 mg/kg/injection, schedule: Q01DX009 (ip), vehicle: alcohol): 100 % of control
- T/C (dose: 100.0 mg/kg/injection, schedule: Q04DX003 (ip), vehicle: alcohol): 95 % of control
- T/C (dose: 200.0 mg/kg/injection, schedule: Q01DX009 (ip), vehicle: alcohol): 100 % of control
- T/C (dose: 200.0 mg/kg/injection, schedule: Q04DX003 (ip), vehicle: alcohol): 110 % of control
- T/C (dose: 400.0 mg/kg/injection, schedule: Q01DX009 (ip), vehicle: alcohol): 86 % of control
- T/C (dose: 400.0 mg/kg/injection, schedule: Q04DX003 (ip), vehicle: alcohol): 100 % of control

SMILES: CCOc1ccn(CC(=O)N2CCOCC2)c(=O)n1
- T/C (dose: 100.0 mg/kg/injection, schedule: Q01DX009 (ip), vehicle: water): 103 % of control
- T/C (dose: 200.0 mg/kg/injection, schedule: Q01DX009 (ip), vehicle: water): 105 % of control
- T/C (dose: 400.0 mg/kg/injection, schedule: Q01DX009 (ip), vehicle: water): 97 % of control

SMILES: S=c1sc(-c2ccc(Cl)cc2)c[se]1
- T/C (dose: 0.78 mg/kg/injection, schedule: Q01DX009 (ip), vehicle: saline with Tween-80): 97 % of control
- T/C (dose: 1.56 mg/kg/injection, schedule: Q01DX009 (ip), vehicle: saline with Tween-80): 109 % of control
- T/C (dose: 3.13 mg/kg/injection, schedule: Q01DX009 (ip), vehicle: saline with Tween-80): 93 % of control and 100 % of control
- T/C [13]: 93 % of control

SMILES: O=S(=O)(O)c1ccc(-c2ccc(S(=O)(=O)O)cc2)cc1 (tested in a mixture with another compound)
- T/C (dose: 21.0 mg/kg/injection, schedule: Q04DX003 (ip), vehicle: saline): 200 % of control
- T/C (dose: 33.0 mg/kg/injection, schedule: Q04DX003 (ip), vehicle: saline): 270 % of control
- T/C [14]: 300 % of control
- T/C (dose: 110.0 mg/kg/injection, schedule: Q04DX003 (ip), vehicle: saline): 300 % of control

SMILES: CC(=O)/C=N/Nc1ccccc1
- T/C (dose: 50.0 mg/kg/injection, schedule: Q04DX003 (ip), vehicle: Klucel (hydroxypropylcellulose) (HPC)): 109 % of control
- T/C (dose: 66.0 mg/kg/injection, schedule: Q04DX003 (ip), vehicle: Klucel (hydroxypropylcellulose) (HPC)): 110 % of control
- T/C [7]: 120 % of control
- T/C (dose: 150.0 mg/kg/injection, schedule: Q04DX003 (ip), vehicle: Klucel (hydroxypropylcellulose) (HPC)): 120 % of control
- T/C [8]: 95 % of control

SMILES: COc1cc2c(cc1OC)C(CCN1C(=O)c3ccccc3C1=O)=NCC2
- T/C (dose: 12.5 mg/kg/injection, schedule: Q01DX009 (ip), vehicle: saline): 91 % of control
- T/C [10]: 87 % of control
- T/C (dose: 25.0 mg/kg/injection, schedule: Q04DX003 (ip), vehicle: saline): 100 % of control
- T/C [14]: 95 % of control

SMILES: CCOC(=O)C(N=C=S)C(C)CC (stereo not drawn)
- T/C (dose: 100.0 mg/kg/injection, schedule: Q01DX001 (ip), vehicle: saline with Tween-80): 115 % of control
- T/C (dose: 200.0 mg/kg/injection, schedule: Q01DX001 (ip), vehicle: saline with Tween-80): 107 % of control
- T/C (dose: 400.0 mg/kg/injection, schedule: Q01DX001 (ip), vehicle: saline with Tween-80): 118 % of control
